Measured values as given in patent publication US20090271892A1, “LYSOPHOSPHATIDIC ACID ACYLTRANSFERASE GENES AND USES THEREOF” (priority 2006, published 2009).
Read-outs that look alike come from different tables or passages of the source. Blank lines part the entries; values can stand above or below the molecule they belong to.

Columns and labels:
[1] = target: Brassica napus LPAAT (BnLPAAT) (Brassica napus, UniProt Q9XFW4); assay: Competitive LPAAT assay using C18:1-CoA and C19CA-CoA; format: biochemical
Experimental: (§1) The ^3H-oleoyl-lysophosphatidic acid (^3HLPA, ref. NET1100; 600 μM, 28 mCi mmol^−1) and ^14C-Oleoyl-CoA (^14CC18:1-CoA, ref. NET651A; 300 μM, 11 mCi mmol^−1) radio-labeled substrates were purchased from Perkin Elmer. Assays were carried out in a final volume of 300 μl and contained Tris/HCl (100 mM, pH7.5), Triton X-100 (0.01% w/v), BSA (1 mg/ml), ascorbic acid (10 mM), EDTA (2 mM), 100 μl LPA and 50 μl acyl-CoA. The reaction was started by the addition of 30 μl of microsomes, and conducted in a glass vial placed in a Eppendorf Thermomixer-compact apparatus (30° C., 350 rpm). The reaction was stopped after incubation (from 0 to 120 min) by addition of 720 μl of chloroform/methanol (1:1). To separate the phases, 280 μl of 1M KCl in 0.2 M H3PO4 were added and the whole mixture was vortexed for 10 s before centrifugation at 1300 g, 5 min at room temperature. The upper aqueous phase was discarded and 2×25 μl of the remaining organic phase was spotted on to silica gel 60 ÅF254 TLC plates (ref. 1.05715, Merck) and developed in chloroform/methanol/NH4OH/water (65:25:0.9:3). The phosphatidic acid spot was visualized by iodine revelation and collected for scintillation counting.
(§2) Radioactivity measurement was performed in 10 mL Ultimagold (ref. 6013329, Perkin Elmer) using a liquid scintillation analyzer (Tri-Carb 2100TR, Packard) for determination of ^3H and ^14C separately.
(§3) […] For all experimental conditions, data are derived from three experiments with 4 replicates each.
(§4) LPAAT selectivity for the two substrates is calculated as follows:
(§5) Selectivity for C18:1-CoA: S^C18:1-CoA=^14C/^3H
(§6) Selectivity for C19CA-CoA: S^C19:1CA-CoA=(^3H—^14C)/^3H
(§7) in which, ^3H and ^14C are the molar quantity of produced PA and the molar quantity of ^14C18:1 incorporated into this PA. These molar quantities are calculated from the corresponding ^3H and ^14C radioactivity levels measured in the phosphatidic acid spots scraped from TLC plates. Selectivity is expressed as the fraction of the specific fatty acid incorporated out of the total incorporated at the sn-2 position.

[2] = target: Litchi sinensis LPAAT (LsLPAAT) (Litchi chinensis, UniProt A0A346D9Z1); assay: as above; format: biochemical
Experimental: as §1, §2, §3, §4, §5, §6, §7

[3] = substrate: CCCCCCCC/C=C\CCCCCCCC(=O)SCCNC(=O)CCNC(=O)[C@H](O)C(C)(C)COP(=O)(O)OP(=O)(O)OC[C@H]1O[C@@H](n2cnc3c(N)ncnc32)[C@H](O)[C@@H]1OP(=O)(O)O; assay: LPAAT assay, kinetic parameters with C18:1-CoA, E. coli JC201 microsomes; format: biochemical, Litchi sinensis; conditions: other: C18:1-CoA 0-50 μM, 10 min, 30° C., pH7.5, N = 5, pH 7.5
Experimental: The inventors have identified one putative Lysophosphatidic Acid-Acyl Transferase from Lychee (SEQ ID No 2). They also have obtained a mutated protein derived from this protein, which is depicted as SEQ ID No 1.
Plasmids pEW108 and 117 comprising genes coding for SEQ ID No 1 and SEQ ID No 2 respectively under the control of the araBAD promoter (Guzman, L-M. et al. (1995) J Bacteriology 177: 4121-4130) were prepared and used to transform and complement an E. coli strain. The araBAD promoter is induced by arabinose, repressed by glucose and is used in the art to express polynucleotides in a controlled manner.
The following experiments were performed with the Escherichia coli JC201 mutant strain, which is temperature conditional in endogenous LPAAT activity and able to grow at 30° C. but not at 44° C. (genotype plsC, described in Coleman, 1990 J. Biol. Chem., 265 (28), 17215-21.). These bacteria were kept at −80° C. as 1 ml glycerol stocks. For E. coli JC201 transformation, one glycerol stock was diluted in 15 mL of Luria-Bertani (ref. L3022, Sigma) liquid medium and cultivated overnight at 30° C. […] Optical density was measured at 600 nm and each flask was then cultivated for 6 hours at 30 and 44° C. respectively in order to check by optical density measurement that bacterial growth occurs at 30° C. but not at 44° C. […]

[4] = LPAAT assay with C18:1-CoA as substrate (microsomes of transformed E. coli); format: biochemical; conditions: expressed in transformed E. coli mutant strains; FIG. 1
Experimental: The ^3H-oleoyl-lysophosphatidic acid (^3HLPA, ref. NET1100; 600 μM, 28 mCi mmol^−1) and ^14C-Oleoyl-CoA (^14CC18:1-CoA, ref. NET651A; 300 μM, 11 mCi mmol^−1) radio-labeled substrates were purchased from Perkin Elmer. Assays were carried out in a final volume of 300 μl and contained Tris/HCl (100 mM, pH7.5), Triton X-100 (0.01% w/v), BSA (1 mg/ml), ascorbic acid (10 mM), EDTA (2 mM), 100 μl LPA and 50 μl acyl-CoA. The reaction was started by the addition of 30 μl of microsomes, and conducted in a glass vial placed in a Eppendorf Thermomixer-compact apparatus (30° C., 350 rpm). The reaction was stopped after incubation (from 0 to 120 min) by addition of 720 μl of chloroform/methanol (1:1). […]
as §2
A first LPAAT assay was performed as described above in order to determine optimal LPAAT activity using ^14CC18:1-CoA as substrate: • Effect of incubation time was tested for 0, 1, 3, 5, 10, 30, 60 and 120 min with 50 μM ^14CC18:1-CoA at 30° C. • In order to determine LPAAT kinetic parameters, the effect of C18:1-CoA concentration was tested as described above. […] For all experimental conditions, the mean of 2 values is calculated. […]

[5] = Competitive LPAAT assay using C18:1-CoA and C19CA-CoA; format: biochemical; conditions: competitive assays using C19CA-CoA and C18:1-CoA
Experimental: as §1, §2, §3, §4, §5, §6, §7

[6] = 50 μM C18:1-CoA, 25 μM C19CA, fraction of total incorporated at sn-2, read-out: Selectivity for C19CA-CoA in competition with C18:1-CoA
[7] = 50 μM C18:1-CoA, 50 μM C19CA, fraction of total incorporated at sn-2, read-out: Selectivity for C19CA-CoA in competition with C18:1-CoA
[8] = average over the concentrations, read-out: Average selectivity for C19CA-CoA in competition with C18:1-CoA

Brassica napus LPAAT (BnLPAAT), sequence (Q9XFW4 other isoform, or with tags, fused parts or gaps): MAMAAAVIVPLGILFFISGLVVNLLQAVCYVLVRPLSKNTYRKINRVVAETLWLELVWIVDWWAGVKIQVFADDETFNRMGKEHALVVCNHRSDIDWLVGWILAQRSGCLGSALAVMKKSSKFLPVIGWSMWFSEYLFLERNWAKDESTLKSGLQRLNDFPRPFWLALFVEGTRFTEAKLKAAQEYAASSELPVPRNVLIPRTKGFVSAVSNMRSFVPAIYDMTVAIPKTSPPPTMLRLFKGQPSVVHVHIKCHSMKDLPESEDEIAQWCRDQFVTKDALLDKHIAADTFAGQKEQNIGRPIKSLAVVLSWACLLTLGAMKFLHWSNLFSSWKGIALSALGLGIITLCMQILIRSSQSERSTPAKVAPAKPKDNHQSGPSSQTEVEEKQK

- selectivity ratio [1, 6]: 0.01
- selectivity ratio [1, 7]: 0.19
- selectivity ratio [1, 8]: 0.054 ± 0.057
- selectivity ratio ([2]; 25 μM C18:1-CoA, 10 μM C19CA, fraction of total incorporated at sn-2, read-out: Selectivity for C19CA-CoA in competition with C18:1-CoA): 0.15
- selectivity ratio ([2]; 25 μM C18:1-CoA, 25 μM C19CA, fraction of total incorporated at sn-2, read-out: Selectivity for C19CA-CoA in competition with C18:1-CoA): 0.34
- selectivity ratio [2, 6]: 0.28
- selectivity ratio [2, 7]: 0.35
- selectivity ratio [2, 8]: 0.377 ± 0.101
- Fatty acids incorporated at the sn-2 position being 19:0CA ([2]; in competition with C18:1-CoA, even at low total concentrations of acyl-CoA): up to 35%
Molecule: CCCCCCCCC1CC1CCCCCCCC(=O)SCCNC(=O)CCNC(=O)[C@H](O)C(C)(C)COP(=O)(O)OP(=O)(O)OC[C@H]1O[C@@H](n2cnc3c(N)ncnc32)[C@H](O)[C@@H]1OP(=O)(O)O (stereo partly shown) [C19CA-CoA]

B1: Litchi sinensis LPAAT (LsLPAAT, pEW117), SEQ ID No 2 (Litchi chinensis) (protein)
chain: MAVAAAAVVVPLGLLFFISGLVVNLFQAVCFVTIRPLSKNLYRRINRVLAELLWLELVWIVDWWAGVKIKLYTDSETFHLMGKEHALVVSNHRSDIDWLVGWVLAQRSGCLGSALAVMKKSSKLLPVIGWSMWFSEYLFLERNWAKDESTLRSGLQRLKDFPKPFWLALFVEGTRFTQAKLLAAQEYATSTGLPIPRNVLIPRTKGFVASVSHMRSFVPAIYDTTVAIPKSSPAPTMLRLFKGQSSVVHVHIKRCLMKDLPETDDTVAQWCRDIFVAKDELLDKHNVEDTFNDGELQDTSRPVKSLLVVTSWACLVVLGALKFLQWSSLLSSWKGIAFSALGLGVVTVLMHILILFSQSERSTPAKVAPAKPKNNGEPSTRSQDKQK
- Km [3]: 3.6 ± 1.7 µM
- Vmax [3]: 0.000115 µmol/min/mg

B2: LsLPAAT: L. sinensis LPAAT; clone not stated in Table 2, probably pEW108 / SEQ ID No 1 (protein)
chain: MAVAAAAVVVPLGLLFFISGLVVNLFQAVCFVTIRPLSKNLYRRINRVLAELLWLELVWIVDWWAGVKIKLYTDSETFHLMGKEHALVVSNHRSDIDWLVGWVLAQRSGCLGSALAVMKKSSKLLPVIGWSMWFSEYLFLERNWAKDESTLRSGLQRLKDFPKPFWLALFVEGTRFTQAKLLAAQEYATSTGLPIPRNVLIPRTKGFVASVSHMRSFVPAIYDTTVAIPKSSPAPTMLRLFKGQSSVVHVHIKRCLMKDLPETDDTVAQWCRDIFVAKDELLDKHNVEDTFNDGELQDTSRPVKSLLVVTSWACLVVLGALKFLQWSSLLSSWKGIAFSALGLGVVTVLMHILILFSQSERSTPAKVAPAKPKNNGEPSTRSPAHPK
modifications: synthetic LPAAT derived from litchi
- esterification of 14C-C18:1-CoA on 3H-LPA (presence of PA in lipid fraction) [4]: fully functional
- use of C19CA-CoA as substrate [5]: can use C19CA-CoA as substrate
